Read-outs that look alike come from different tables or passages of the source.
Columns and labels:
JAK1 = JAK1 (Homo sapiens, UniProt P23458); experiment: JAK/TYK2 assay (Kinase Glo luminescence): Jak1 kinase assay; format: biochemical; conditions: 7.5 nM enzyme, 2 uM ATP, 30 uM IRS-1, 1 hr
Protocol: (§1) Example A: JAK/TYK2 Assay 10 mM test compound stock or 1 mM control compound stock (tofocitinib, ruxolitinib or staurosporine) in DMSO was diluted to 0.4 mM in DMSO. A 3-fold series dilution was then performed in DMSO to generate 10 different compound concentrations. The assay was carried out in 384-well white plate. 0.5 μL of 40× compound DMSO solution at different concentrations was mixed with 10 uL 2× enzyme prepared in reaction buffer (20 mM HEPES, 10 mM MgCl2, 0.01% Tween, 1 mM DTT, pH 7.5). 10 uL 2× substrate mixture prepared in reaction buffer was then added to start the reaction. A short spin was done to settle down all solutions to the bottom of the plate. Final concentrations of test compound in the reaction mixture were 10000, 3333, 1111, 370, 123, 41.2, 13.7, 4.57, 1.52 and 0.51 nM, Concentrations of control compound were ten times less. Enzymatic reaction was conducted at 25° C. for 1-2 hours. 10 uL of Kinase Glo Reagents was added to stop the reaction and generate the luminescent signal which was measured using Envision. Luminescence signal was inversely related to kinase activity. […] The mixture without any compound was the positive control. [table]

JAK2 = JAK2 (Homo sapiens, UniProt O60674); experiment: JAK/TYK2 assay (Kinase Glo luminescence): Jak2 kinase assay; format: biochemical; conditions: 0.8 nM enzyme, 2 uM ATP, 4 uM pEY, 1 hr; read-out: Jak2 kinase assay: IC50 Geomean
Chain of JAK2 (O60674 whole entry, species assumed): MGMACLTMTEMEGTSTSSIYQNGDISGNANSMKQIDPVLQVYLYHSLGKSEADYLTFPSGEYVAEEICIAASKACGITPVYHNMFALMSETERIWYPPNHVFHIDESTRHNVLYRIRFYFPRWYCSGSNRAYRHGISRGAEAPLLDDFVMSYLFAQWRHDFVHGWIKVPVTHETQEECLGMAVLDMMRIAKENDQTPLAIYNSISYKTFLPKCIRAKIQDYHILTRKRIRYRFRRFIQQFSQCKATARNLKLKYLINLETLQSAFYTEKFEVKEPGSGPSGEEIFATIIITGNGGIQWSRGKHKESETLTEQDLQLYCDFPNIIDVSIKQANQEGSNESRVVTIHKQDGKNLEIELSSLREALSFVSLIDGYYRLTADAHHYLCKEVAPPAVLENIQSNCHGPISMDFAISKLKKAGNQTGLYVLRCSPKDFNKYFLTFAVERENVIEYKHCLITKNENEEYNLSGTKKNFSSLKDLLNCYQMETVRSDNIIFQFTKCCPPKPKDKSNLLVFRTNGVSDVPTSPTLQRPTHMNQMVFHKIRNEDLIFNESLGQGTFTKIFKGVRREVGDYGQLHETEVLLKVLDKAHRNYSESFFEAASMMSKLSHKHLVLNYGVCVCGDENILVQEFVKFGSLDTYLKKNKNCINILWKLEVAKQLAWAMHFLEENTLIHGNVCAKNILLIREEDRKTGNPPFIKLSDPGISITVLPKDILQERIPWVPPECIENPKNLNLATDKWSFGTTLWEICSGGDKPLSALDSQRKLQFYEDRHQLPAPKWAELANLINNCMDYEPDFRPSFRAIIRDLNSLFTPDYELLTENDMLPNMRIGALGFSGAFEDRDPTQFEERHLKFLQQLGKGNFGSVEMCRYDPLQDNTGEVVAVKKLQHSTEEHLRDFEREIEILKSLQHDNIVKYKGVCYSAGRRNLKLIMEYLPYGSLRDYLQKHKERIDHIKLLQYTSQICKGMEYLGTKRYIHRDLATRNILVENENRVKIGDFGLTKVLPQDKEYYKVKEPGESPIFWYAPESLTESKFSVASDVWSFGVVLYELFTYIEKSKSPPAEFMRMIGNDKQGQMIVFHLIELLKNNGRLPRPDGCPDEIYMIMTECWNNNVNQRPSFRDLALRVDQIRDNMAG
Protocol: as §1

TYK2 = TYK2 (Homo sapiens, UniProt P29597); experiment: JAK/TYK2 assay (Kinase Glo luminescence): Tyk2 kinase assay; format: biochemical; conditions: 9 nM enzyme, 2 uM ATP, 30 uM IRS-1, 1 hr; read-out: Tyk2 kinase assay: IC50 Geomean
Chain of TYK2 (P29597 whole entry, species assumed): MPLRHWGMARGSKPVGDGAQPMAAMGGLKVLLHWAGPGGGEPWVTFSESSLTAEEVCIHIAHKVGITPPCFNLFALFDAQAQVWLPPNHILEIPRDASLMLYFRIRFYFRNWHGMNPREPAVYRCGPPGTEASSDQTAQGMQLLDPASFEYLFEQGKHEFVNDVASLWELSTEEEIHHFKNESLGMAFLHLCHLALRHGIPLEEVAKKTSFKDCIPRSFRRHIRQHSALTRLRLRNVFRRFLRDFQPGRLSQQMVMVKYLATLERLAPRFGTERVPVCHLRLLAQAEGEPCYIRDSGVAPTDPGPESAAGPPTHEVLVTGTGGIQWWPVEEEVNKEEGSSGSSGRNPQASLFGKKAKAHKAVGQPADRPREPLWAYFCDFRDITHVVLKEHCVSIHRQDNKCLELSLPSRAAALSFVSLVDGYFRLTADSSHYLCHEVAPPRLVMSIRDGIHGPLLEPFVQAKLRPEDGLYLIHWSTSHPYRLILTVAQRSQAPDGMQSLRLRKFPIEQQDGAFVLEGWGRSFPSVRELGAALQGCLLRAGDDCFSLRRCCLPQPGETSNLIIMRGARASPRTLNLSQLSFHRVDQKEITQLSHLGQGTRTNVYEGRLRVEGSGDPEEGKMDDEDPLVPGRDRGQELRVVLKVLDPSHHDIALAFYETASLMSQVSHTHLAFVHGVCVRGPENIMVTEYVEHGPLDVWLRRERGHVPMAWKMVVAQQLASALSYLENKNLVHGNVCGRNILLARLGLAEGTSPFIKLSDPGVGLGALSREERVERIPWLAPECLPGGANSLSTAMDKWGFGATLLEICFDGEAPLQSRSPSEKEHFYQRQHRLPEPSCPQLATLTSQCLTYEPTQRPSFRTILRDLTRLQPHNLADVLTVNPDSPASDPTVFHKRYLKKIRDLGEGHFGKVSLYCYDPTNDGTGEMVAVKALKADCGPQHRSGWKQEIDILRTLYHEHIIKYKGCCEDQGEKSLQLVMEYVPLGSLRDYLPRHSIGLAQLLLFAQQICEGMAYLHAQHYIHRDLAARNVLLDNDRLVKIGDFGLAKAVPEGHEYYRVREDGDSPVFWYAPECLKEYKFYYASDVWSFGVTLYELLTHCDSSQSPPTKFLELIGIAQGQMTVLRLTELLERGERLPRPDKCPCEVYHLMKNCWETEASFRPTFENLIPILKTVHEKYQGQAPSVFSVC
Protocol: as §1

[1] = tested on: JAK2: GM-CSF stimulated STAT5 phosphorylation; experiment: Co-stimulation assay in lysed whole blood; JAK2: GM-CSF stimulated STAT5 phosphorylation; format: cell-based, human
Protocol: Example C: Co-Stimulation Assay in Lysed Whole Blood; JAK2: GM-CSF Stimulated STAT5 Phosphorylation and JAK1/TYK2 Stimulated STAT1 Phosphorylation Assay
Human Blood Lysis using abcam's RBC lysis buffer
Dilute RBC lysis buffer to 1× in distilled water. Add 2 mL blood to 38 mL of 1×RBC-lysis buffer. Incubate for 15 mins at RT, in dark. Spin at 300 g, 5 mins, to collect the pellet. Re-lyse if necessary. Re-suspend pellet in 5 mL of cRPMI.
Aliquot 80 μL of lysed human blood in to wells of 96 deep-well plate. Add 10 μl of (10× conc.) of different concentrations of compounds to all wells except controls (unstained and unstimulated) and mix it with the help of 100 uL multichannel Add 10 uL of RPMI media in controls. For dilution of compounds and dilution range please refer Appendix. Incubate on water bath or CO2 incubator for 1 hour at 37° C. Add 10 μl of (10× conc.) of cytokine mix (GM-CSF and IFNa) (final conc. 10 ng/mL of GM-CSF and 100 ng/mL of IFNa) to each well except unstimulated and unstained controls and incubate further for 20 minutes on water bath at 37° C.
Add 900 μL of prewarmed 1× Fix/Lyse solution (Appendix) and mix it properly using 1000 μl multichannel, incubate further on water bath at 37° C. for 10 minutes (which includes time of addition). Centrifuge at 800×g for 5 minutes at 40° C.; remove 900 uL of supernatant and add 900 μL of 1×PBS. Centrifuge at 800×g for 5 minutes at 40° C., remove 900 μL of supernatant. Wash one more time with 900 μL of PBS (optional) and resuspend pellets in 100 uL of PBS.
Disrupt the pellet by gentle tapping and resuspend in 1000 μL of BD Phosflow Perm Buffer III and incubate plate on ice for 30 minutes. Centrifuge plate at 800×g for 5 minutes at 40° C. Wash two more times with 1000 μL of BD Pharmingen Stain Buffer.
Disrupt the pellet by gentle tapping. Resuspend pellets in 100 uL of Stain Buffer and add 5 μL of pSTAT5_AF488 Ab and 5 uL of pSTAT1_PE in all wells except unstained control and mix properly using 200 μl multichannel, incubate overnight at […]. Add 900 μL of wash buffer and centrifuge at 1800 rpm for 3 minutes at […]. Wash one more time with 1000 μL of BD Pharmingen Stain Buffer. Finally resuspend the pellet in 300 uL of BD Pharmingen Stain Buffer. Transfer the cells to 96-well v-bottom plate and acquire the cells in Beckman Coulter CytExpert. Acquiring cells in Flow Cytometer: Keep the threshold value to 250 and cell concentration should not exceed 100-500 cells/4. Acquire at least 5,000-10,000 cells.
RPMI 1640 Complete Medium: RPMI 1640 media+10% FBS.
Cytokine dilution: 1) GM-CSF Stock at 100 ug/mL. Prepare an intermediate dilution of 1 ug/mL by adding 2 uL of stock into 198 uL of cRPMI. Further dilute to 100 ng/mL by adding 100 uL of the intermediate stock to 900 uL of cRPMI. 2) IFNa Stock at 200 ug/mL. Dilute IFNa stock 1:200 by adding 5 uL of stock into the 1000 uL of 100 ng/mL GM-CSF working stock as above to give a combined working stock of 1000 ng/mL of IFNa and 100 ng/mL GM-CSF (10×). Keep it on ice until used.
Lyse/Fix buffer preparation: Dilute 5× Lyse/Fix buffer to 1× using MQ water and keep at 37° C. until used.
BD Phosflow perm buffer III: Keep on ice/fridge

[2] = lysed human whole blood, GM-CSF 10 ng/mL (with IFNa 100 ng/mL), pSTAT5 by flow cytometry, read-out: GMCSF/J2/pS5: GeoMean
[3] = Homo sapiens, read-out: GMCSF/J2/pS5: GeoMean (nM)

Chain of JAK1 (P23458 whole entry, species assumed): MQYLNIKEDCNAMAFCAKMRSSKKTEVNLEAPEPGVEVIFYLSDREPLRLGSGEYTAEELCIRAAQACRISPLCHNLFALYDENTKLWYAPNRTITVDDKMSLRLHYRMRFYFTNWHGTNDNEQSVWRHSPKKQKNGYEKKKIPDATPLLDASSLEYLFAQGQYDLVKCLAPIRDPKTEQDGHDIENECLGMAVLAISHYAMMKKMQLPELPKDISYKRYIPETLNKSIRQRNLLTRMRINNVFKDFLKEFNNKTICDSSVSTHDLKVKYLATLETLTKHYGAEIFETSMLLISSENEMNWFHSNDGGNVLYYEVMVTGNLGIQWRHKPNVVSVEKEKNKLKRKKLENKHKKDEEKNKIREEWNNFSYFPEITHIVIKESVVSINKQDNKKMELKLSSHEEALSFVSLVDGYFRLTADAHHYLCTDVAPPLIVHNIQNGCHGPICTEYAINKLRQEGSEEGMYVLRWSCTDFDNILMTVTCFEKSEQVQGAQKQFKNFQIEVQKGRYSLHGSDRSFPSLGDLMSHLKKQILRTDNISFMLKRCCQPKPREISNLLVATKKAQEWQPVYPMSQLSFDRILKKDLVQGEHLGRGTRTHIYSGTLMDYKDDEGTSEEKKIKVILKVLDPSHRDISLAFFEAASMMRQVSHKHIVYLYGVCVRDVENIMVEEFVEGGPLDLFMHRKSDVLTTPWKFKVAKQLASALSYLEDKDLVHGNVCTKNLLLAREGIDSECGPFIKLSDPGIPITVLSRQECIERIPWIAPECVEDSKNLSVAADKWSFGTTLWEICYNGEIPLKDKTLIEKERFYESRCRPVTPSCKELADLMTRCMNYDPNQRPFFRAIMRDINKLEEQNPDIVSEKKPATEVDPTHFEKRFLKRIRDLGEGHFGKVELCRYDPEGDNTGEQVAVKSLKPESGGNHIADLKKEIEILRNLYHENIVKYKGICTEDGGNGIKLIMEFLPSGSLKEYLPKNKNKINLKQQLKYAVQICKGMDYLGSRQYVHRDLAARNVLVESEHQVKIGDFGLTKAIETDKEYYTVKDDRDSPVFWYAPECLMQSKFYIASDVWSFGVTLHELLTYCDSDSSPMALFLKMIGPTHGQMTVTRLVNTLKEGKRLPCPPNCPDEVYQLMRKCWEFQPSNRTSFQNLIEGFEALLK

| SMILES | IC50 (JAK1) [nM] | IC50 (JAK2) [nM] | IC50 (TYK2) [nM] | IC50 [1, 2] [nM] | IC50 [1, 3] [nM] |
| --- | --- | --- | --- | --- | --- |
| CC[C@H](Cn1ccc2cnc(Nc3cnn(CC(N)=O)c3)nc21)C(C)C [Example 1, (S)-2-(4-((7-(2-ethyl-3-methylbutyl)-7H-pyrrolo[2,3-d]pyrimidin-2-yl)amino)-1H-pyrazol-1-yl) acetamide] | < 100 | < 100 | < 100 | 100 to 1000 |  |
| CC[C@H](Cn1ccc2cnc(Nc3cnn(CC(=O)N4CCOC4=O)c3)nc21)C(C)C [Example 3, (5)-3-(2-(4-((7-(2-ethyl-3-methylbutyl)-7H-pyrrolo[2,3-d]pyrimidin-2-yl)amino)-1H-pyrazol-1-yl)acetyl) oxazolidin-2-one] | < 100 | < 100 | < 100 |  | 1000 to 10000 |
| CCC(CC)Cn1ccc2cnc(Nc3cnn(CC(N)=O)c3)nc21 [Example 7, 2-(4-((7-(2-ethylbutyl)-7H-pyrrolo[2,3-d]pyrimidin-2-yl)amino)-1H-pyrazol-1-yl) acetamide] | < 100 | < 100 | < 100 | 100 to 1000 |  |
| CC[C@@H](Cn1ccc2cnc(Nc3cnn(C4CCNC4=O)c3)nc21)C(C)C (stereo partly shown) [Example 8] | < 100 | < 100 | < 100 |  | 1000 to 10000 |

Source: patent US20230024521A1, “JAK INHIBITORS” (Vimalan Biosciences, Inc., priority 2019, published 2023)
